We go through one compound from patent US20220202835A1, “INJECTABLE CLORSULON COMPOSITIONS, METHODS AND USES THEREOF” (Boehringer Ingelheim Animal Health USA Inc., priority 2019, published 2022).

Data set [1] deals with Fasciola hepatica. The experiment in a line: Study 1: efficacy against induced Fasciola hepatica infection in cattle (fluke counts at necropsy). The conditions noted are these: subcutaneously to cattle at 6 and 8 mg/kg bodyweight as a 30% w/v solution.
For data set [2], the system named is Fasciola hepatica. The experiment in a line: Study 2: efficacy against four week old Fasciola hepatica in cattle.
Data set [3] can be described thus: Study 2: clorsulon plasma pharmacokinetics in cattle (LC-MS). Type of data set: in vivo. Conditions: for Maximum plasma concentrations: cattle. The protocol:
Whole blood samples for analysis of plasma for analysis of clorsulon were collected from the jugular vein. Samples were collected in ˜7.5 mL lithium heparinized tubes for plasma preparation once prior to treatment on Day-2±1. Thereafter, blood samples were collected according to the Schedule of Operations (Table 3). The time of blood sampling was recorded, and care was taken to avoid cross-contamination of samples during sample collection, storage, and processing. Plasma was recovered from each sample, aliquoted (two aliquots) and stored frozen (at or below −20° C.) until required for assays. The cryo-tubes were labeled with Study Number, type of sample, date, Study Day/time of sampling, and animal ID.
One aliquot with plasma was used for analysis for clorsulon concentrations using currently High Performance Liquid Chromatography-Mass Spectrometry (LC-MS) methodology.
Plasma samples were assayed for clorsulon.
If quantifiable plasma concentrations were determined for an animal, pharmacokinetic analysis was performed as described below. Clorsulon plasma concentrations were determined for an animal at each sampling time, when appropriate. […] The mean concentration-time profiles will be obtained by averaging the concentrations at each sampling time point for all treated animals.
The therapeutic efficacy and pharmacokinetic parameters of clorsulon were evaluated when administered subcutaneously as 30% (w/v) clorsulon formulation to cattle experimentally infected with liver flukes (Fasciola hepatica). This study differs from Study Number 1 in that there is no administration of 10% (w/v) clorsulon and only immature (four week old) F. hepatica flukes were used.

Regarding `Nc1cc(C(Cl)=C(Cl)Cl)c(S(N)(=O)=O)cc1S(N)(=O)=O` [clorsulon, 4-amino-6-(1,2,2-trichloroethenyl)benzene-1,3-disulfonamide], the “efficacy against early immature (four and six week old) F. hepatica” value in data set [1] was 98-100%. The “Eff (%) against Fasciola hepatica” value in data set [2] (Group 2: 30% w/v solution, 8 mg/kg subcutaneously once on Day 0 (4 week old flukes)) is on record as 99.6%; in data set [2] (Group 3: 30% w/v solution, 6 mg/kg subcutaneously once on Day 0 (4 week old flukes)), 99.9%; in data set [2] (Group 4: 30% w/v solution, 4 mg/kg subcutaneously once on Day 0 (4 week old flukes)), 92.9%. The Maximum plasma concentrations in data set [3] (Group 2: 30% w/v solution, 8 mg clorsulon/kg SC) is 5740 ± 1160 ng/mL; in data set [3] (Group 3: 30% w/v solution, 6 mg clorsulon/kg SC), 4430 ± 988 ng/mL; in data set [3] (Group 4: 30% w/v solution, 4 mg clorsulon/kg SC) it was 3140 ± 530 ng/mL. In data set [3] (Groups 2-4 (4, 6, 8 mg/kg SC), 12 out of 18 animals), the “time at which maximum plasma concentrations were reached” value is at most 12 h.
